{"source": "patent US20230272077A1", "about": "“PD-1 SIGNAL INHIBITOR COMBINATION THERAPY” (KYOTO UNIVERSITY, priority 2015, published 2023)", "key": {"MethA": {"system": "MethA", "assay": "Mouse therapy model, MethA-transplanted BALB/c mice (tumor volume)", "assay_type": "in vivo", "settings": "MethA in BALB/c mice; combined with PD-L1 antibody", "protocol": "MC38 (5×10^5) and MethA (5×10^5) cells were intradermally injected on the right flank. MC38 was inoculated into C57BL/6 mice and MethA was inoculated into BALB/c mice. For monotherapy, mice were intraperitoneally injected with 150 μg of PD-L1 mouse antibody (1-111A) (prepared by the laboratory of the present inventors) 5 days after the tumor inoculation. Therapy with PD-L1 antibody alone was repeated three times every 5 days. For combination therapy, administration of PD-L1 antibody and chemical agents started 7 days after tumor injection. Chemical agents were injected at a regular interval of 2 days and PD-L1 antibody at a regular interval of 5 days (shown in FIG. 3b). Tumors were measured on every alternate day, and tumor volumes were calculated using the formula for typical ellipsoid, π×(length×breadth×height/6).\nThe following chemical reagents were used at the indicated concentrations for combination therapy. AMPK activator: A769662, 6 mg/kg (Abcam); mTOR activator: MHY1485, 3 μg/kg (Sigma-Aldrich); uncoupler: carbonylcyanide-p-trifluoromethoxyphenylhydrazone (FCCP), 1.2 mg/kg (Abcam); uncoupler: 2,4-Dinitrophenol (DNP), 1.7 mg/kg (Aldrich); SIRT1 activator: resveratrol, 0.5 mg/kg (Abcam); ROS scavenger: Mn (III) tetrakis (4-benzoic acid) porphyrin (MnTBAP), 1.25 mg/kg (Calbiochem); ROS generator: tert-butyl hydroperoxide solution (Luperox TBH70X), 200 μL/kg (Sigma-Aldrich); ATP synthase inhibitor: oligomycin, 250 μg/kg (Sigma-Aldrich); paraquat 2 mg/kg (Nakalai Tesque); oltipraz 1.9 mg/kg (Sigma); bezafibrate 1 mg/kg (ChemCruz).\nMethA cells (5×10^5) were inoculated into BALB/c mice. After 7 days, anti-PD-L1 antibody (1-111A, 80 μg) and Foxo1 inhibitor (5-amino-7-(cyclohexylamino)-1-ethyl-6-fluoro-4-oxo-1,4-dihydroquinoline-3-carboxylic acid, Calbiochem) (2 mg/kg) were administered intraperitoneally.\nFibrosarcoma MethA (Cell Resource Center for Biomedical Research) cells (5×10^5) were inoculated into BALB/c mice. After 7 days, anti-PD-L1 antibody (1-111A, 60 μg) and Aminoleban (Otsuka Pharmaceutical, 400 μl/mouse) were administered."}, "[1]": {"system": "AMPK and its associated proteins ACC and SIRT1", "assay": "Western blotting of DLN CD8+ T cells, AMPK pathway", "assay_type": "in vivo, mouse", "settings": "CD8+ T cells from mice treated with PD-L1 antibody and reagent", "protocol": "FIG. 7. […] Phosphorylation of AMPK, ACC, mTOR and S6K and the expression of SIRT1 and 4EBP1 were analyzed by Western blotting. b) MC38-bearing mice were treated with PD-L1 antibody in combination with AMPK activator (A769662) and/or mTOR activator (MHY1485) according to the same schedule as shown in FIG. 3b.\nCD8^+ T cells were isolated using mouse CD8 Microbeads (Miltenyi Biotec). After washing with PBS twice, 2×10^6 cells were solubilized in a lysis buffer containing 30 mM Tris-HCl (pH.7.4), 150 mM NaCl, 10% glycerol, 0.1% SDS, 1% Triton-X-100, 0.05% Na-Doc, 5 mM EDTA (pH.8.0), protease inhibitor mixture (Roche Molecular Biochemicals) and phosphatase inhibitors (Nacalai Tesque). After measurement of protein concentrations by DC protein assay (Bio-Rad), 4 μg of proteins was mounted on 4 to 20% gradient Mini-PROTEAN TGX Gels (Bio-Rad) and electroblotted onto nitrocellulose membranes, which were then incubated in a blocking buffer of TBS containing 1% BSA. Primary antibody incubations were carried out overnight at 4° C. in blocking buffer. After washing, secondary antibody incubations were carried out at room temperature for 40 min in blocking buffer. Blots were developed with enhanced chemiluminescence (Amersham Pharmacia). […]"}}}
{"smiles": "N#CC(C#N)=NNc1ccc(OC(F)(F)F)cc1", "note": "[FCCP, carbonyl cyanide p-trifluoromethoxyphenylhydrazone]", "values": [{"measurement": "enhancement of antitumor effect of PD-L1 antibody (tumor volume)", "setting": "MethA", "result": "enhanced the antitumor effect of PD-L1 antibody"}, {"measurement": "activation of AMPK and its associated proteins ACC and SIRT1", "setting": "[1]", "result": "activated"}]}
